According to patent US20240000751A1, “STABLE ORAL FORMULATION CONTAINING 1-(3-CYANO-1-ISOPROPYL-INDOL-5-YL)PYRAZOLE-4-CARBOXYLIC ACID” (LG CHEM, LTD., priority 2020, published 2024):

Assay: Stability of API and 1:1 API/excipient mixtures stored under accelerated conditions, residual assay of API by HPLC
Type: physicochemical
Settings: mixture
Description: As disclosed in Table 1 below, after preparing a mixture by mixing API, 1-(3-cyano-1-isopropyl-indol-5-yl)pyrazol-4-carboxylic acid, with various types of excipients such as microcrystalline cellulose, the residual assay of API at the initial stage and after 1 month, 2 months, and 3 months storage, respectively, under accelerated conditions (40° C., 75% RH; relative humidity) were measured through the analysis method and process described below.
• HPLC analysis conditions are as follows: • Column: Inertsil ODS-2 (4.6×150 mm, 5 μm, GL Science) • Detector: 254 nm, UV • Flow Rate: […] • Injection Volume: […] • Column Temperature: 40° C. • Eluent • A: Acetonitril/Purified water/TFA(Trifluoroacetic acid)=40/60/0.1(v/v/v) • B: Acetonitril/Purified water/TFA=80/20/0.1(v/v/v)

CC(C)n1cc(C#N)c2cc(-n3cc(C(=O)O)cn3)ccc21 [Comparative Example 1, 1-(3-cyano-1-isopropyl-indol-5-yl)pyrazol-4-carboxylic acid]
residual assay of API, 3 Months (after 3 months storage under accelerated conditions (40° C., 75% RH)): 98.7% | residual assay of API, Initial (initial stage, accelerated conditions (40° C., 75% RH)): 98.7%
